Results published in patent US10561676B2, “Method for treating cancer using dual antagonists of CXCR1 and CXCR2” (Syntrix Biosystems, Inc., priority 2018, dated 2020).

Columns and labels:
[1] = test system: B16-F10 syngeneic mouse model of melanoma; test: B16-F10 syngeneic mouse model of melanoma; format: in vivo
Experimental: The B16-F10 mouse model is an established model of melanoma, Overwijk, 2001, CURR PROTOC IMMUNOL, Chapter 20: Units 20-21 (herein incorporated by reference), which was used to evaluate the effect of SX-682 alone and in combination with anti-PD1 antibody. B16-F10 mouse melanoma cells were cultured, then mice were injected with 0.5×10^6 B16-F10 cells on day 0, and treatment was initiated on day 18. Mice were treated with vehicle (control), SX-682 alone (50 mg/kg twice daily, oral), anti-PD-1 alone (100 μg twice weekly, i.p.), or SX-682 in combination with anti-PD-1 (N=4-5 per cohort). SX-682 was used as a spray dried dispersion (Formulation Example 1), and was administered to mice via oral gavage as a suspension in 0.5% aq. methylcellulose. […] Data and error bars are the mean±SE.

[2] = test system: LLC syngeneic mouse model of lung cancer; test: LLC syngeneic mouse model of lung cancer; format: in vivo
Experimental: The Lewis lung carcinoma (LLC) mouse model (Kellar, 2015, Biomed Res Int, 2015:621324, herein incorporated by reference) was used to evaluate the effect of SX-682 alone and in combination with anti-PD-1 antibody. LLC mouse […] cells were cultured, then mice were injected with 0.5×10^6 LLC cells on day 0, and on day 18 treatment was initiated. Mice were treated with vehicle (control), SX-682 alone (50 mg/kg twice daily, oral), anti-PD-1 alone (100 μg twice weekly, i.p.), or SX-682 in combination with anti-PD-1 (N=5 per cohort). SX-682 was used as a spray dried dispersion (Formulation Example 1), and was administered to mice via oral gavage as a suspension in 0.5% aq. methylcellulose.

[3] = test system: 60 human tumor cell line panel; test: 60 human tumor cell line panel proliferation (SRB); format: cell-based; conditions: 0.01-100 μM, 48 h
Experimental: The chemokine CXCL8 and its receptors CXCR1 and CXCR2 have been identified as important mediators of cellular proliferation for a number of tumor cell types.
The human tumor cell lines of the cancer screening panel were grown in RPMI 1640 medium containing 5% fetal bovine serum and 2 mM L-glutamine. […] After cell inoculation, the microtiter plates were incubated at 37° C., 5% CO2, 95% air and 100% relative humidity for 24 h prior to addition of SX-682.
After 24 h, two plates of each cell line are fixed in situ with TCA, to represent a measurement of the cell population for each cell line at the time of drug addition (Tz). […]
Following drug addition, the plates were incubated for an additional 48 h at 37° C., 5% CO2, 95% air, and 100% relative humidity. […] Bound stain was subsequently solubilized with 10 mM TRIS, and the absorbance was read on an automated plate reader at a wavelength of 515 nm. […] Using the seven absorbance measurements (time zero, (Tz), control growth, (C), and test growth in the presence of drug at the five concentration levels (Ti)), the percentage growth was calculated at each of the drug concentrations levels. Percentage growth inhibition was calculated as: (Ti−Tz)/(C−Tz)×100 for concentrations for which Ti>/=Tz (Ti−Tz)/Tz×100 for concentrations for which Ti<Tz.
Three dose response parameters were calculated for each experimental agent. […]

[4] = test system: T11 mouse model of breast cancer; test: T11 mouse model of breast cancer; format: in vivo
Description: The T11 model is a validated mouse model of breast cancer, which derives from the serial orthotopic transplantation of a murine breast tumor derived from a p53-null mouse into a syngeneic p53 competent recipient, and features sporadic, somatic K-Ras mutation (Herschkowitz, 2012, Proc Natl Acad Sci, 109:2778-83, herein incorporated by reference). Tumors from the T11 model display an RNA expression pattern characteristic of the human claudin-low disease, and are extremely aggressive, with the majority of untreated animals surviving less than 21 days from the time of enrollment in the therapy studies. Treatment regimens were started following tumor manifestation. SX-682 was given orally via medicated feed, at an approximate dose of 10 mg/day/mouse. In brief, the medicated feed was prepared by Research Diets (New Brunswick, N.J.) by incorporating 15.2 grams of SX-682 spray dried dispersion (as prepared in Formulation Example 1) into 1042 grams of standard rodent diet with 10% kcals from fat. The medicated feed was formed into pellets. Carboplatin (CP) was administered once weekly via intraperitoneal injection at a dose of 50 mg/kg. […] Mean±SE. *** P<0.0001 (linear regression).

[5] = SX-682 50 mg/kg twice daily oral + anti-PD-1 100 μg twice weekly i.p.

O=C(Nc1ccc(F)cc1)c1cnc(SCc2cc(OC(F)(F)F)ccc2B(O)O)nc1 [SX-682, 2-(2-boronic acid-5-trifluoromethoxy-benzylsulfanyl)-pyrimidine-5-carboxylic acid (4-fluoro-phenyl)-amide]
tumor growth, SX-682 monotherapy ([1]; 50 mg/kg twice daily, oral): significantly slowed tumor growth | tumor growth, SX-682 in combination with anti-PD-1 [1, 5]: significantly better than either therapy alone | tumor growth, SX-682 monotherapy ([2]; 50 mg/kg twice daily, oral): significantly slowed tumor growth | tumor growth, SX-682 in combination with anti-PD-1 [2, 5]: significantly better than either therapy alone | survival, SX-682 in combination with anti-PD-1 ([2]; vs vehicle or anti-PD-1 alone, up to 66 days): significantly enhanced survival | tumor cell proliferation [3]: directly affect the proliferation of human tumor cells | tumor volume, SX-682 alone ([4]; 10 mg/day/mouse oral, 1-2 weeks): effective therapy | tumor growth, SX-682 added to carboplatin ([4]; SX-682 10 mg/day/mouse oral feed + CP 50 mg/kg weekly i.p.): significantly reduced tumor growth
